Values quoted from earlier work, collected in paper PMC8739290, “A phase 1b study of erlotinib and momelotinib for the treatment of EGFR-mutated, tyrosine kinase inhibitor-naive metastatic non-small cell lung cancer” (Cancer Chemotherapy and Pharmacology, 2021).

Tested on: PC-9 and HCC827 models
Set-up: method as in PMID 32297743, doi:10.1158/7445.AM2017-4046
Conditions: AZD4205 with osimertinib, increased tumor regression, delayed regrowth, knockdown of pSTAT3; cited from earlier work

In the case of `COc1nn(C)cc1Nc1nccc(-c2c[nH]c3c(NC(=O)[C@@H](C)N4CCN(C)CC4)cccc23)n1` [AZD4205, (2R)-N-[3-[2-[(3-Methoxy-1-methyl-pyrazol-4-yl)amino]pyrimidin-4-yl]-1H-indol-7-yl]-2-(4-methylpiperazin-1-yl)propenamide], the “combination activity compared to each agent alone” value is given as “synergistic activity”.
